For assay [1], the target named is T1, CD73 on U138 human neuroglioma cells (Homo sapiens, UniProt P21589).
T1 construct: U138 cells were obtained from ATCC and cultured in DMEM with 10% FBS; host or cells: U138 human neuroglioma cells
T1 sequence (P21589 27-549): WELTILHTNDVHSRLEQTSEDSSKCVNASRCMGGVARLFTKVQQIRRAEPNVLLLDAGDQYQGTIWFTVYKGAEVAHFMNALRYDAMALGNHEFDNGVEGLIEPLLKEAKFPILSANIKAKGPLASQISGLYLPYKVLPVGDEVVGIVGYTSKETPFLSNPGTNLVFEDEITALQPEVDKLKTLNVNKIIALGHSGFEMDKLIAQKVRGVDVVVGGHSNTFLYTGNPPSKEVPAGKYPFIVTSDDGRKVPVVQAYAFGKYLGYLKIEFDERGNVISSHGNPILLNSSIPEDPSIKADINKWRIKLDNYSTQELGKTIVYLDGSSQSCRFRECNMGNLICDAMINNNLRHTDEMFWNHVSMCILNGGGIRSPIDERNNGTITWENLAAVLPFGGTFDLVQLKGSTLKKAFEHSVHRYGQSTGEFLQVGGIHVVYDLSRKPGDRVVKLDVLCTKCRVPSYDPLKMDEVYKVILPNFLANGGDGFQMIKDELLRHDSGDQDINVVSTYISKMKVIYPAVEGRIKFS
Briefly: CD73 Cell-Based Assay. Conditions: U138 cells, AMP substrate, 2 hours at 37° C., inorganic phosphate by malachite green. The gist of the method:
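Whole U138 cells washed free of phosphate were incubated with 200 μM AMP (mixture concentration before equal-volume addition) plus compound in HEPES-buffered saline, pH 7.4, for 2 h at 37 °C, 5% CO2. Adenosine-forming activity read as inorganic phosphate released into supernatant by malachite green.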

Another assay addresses T2, Human CD73 (Homo sapiens, UniProt P21589).
T2 construct: purchased R&D Systems; host or cells: CHO cells
T2 sequence (P21589 27-549): T1 sequence (P21589 27-549)
Description: CD73 Enzyme Assay. In kind it is biochemical. Particulars: 0.25 nM hCD73, 25 μM AMP, kinetic read at 360 nm; read-out: CD73 Enzyme Assay IC50.

SMILES strings stand for the structures. Some results are limits rather than exact numbers.

`O=P(O)(O)COC[C@H]1O[C@H](c2c[nH]c3c(N4CC5CCCC5C4)nc(Cl)nc23)[C@H](O)[C@@H]1O` (stereo partly drawn) [Compound 294, [(2R,3S,4R,5R)-5-[4-(3,3a,4,5,6,6a-hexa-hydro-1H-cyclopenta-[c]pyrrol-2-yl)-2-chloro-5H-pyrrolo[3,2-d]pyrimidin-7-yl]-3,4-dihydroxy-tetrahydro-furan-2-yl]methoxy-methylphosphonic acid]: the IC50 – broadly, the concentration needed to halve the response being measured – is below 10 nM in assay [1] and 10 to 100 nM at Human CD73.
The matching figures for `O=P(O)(O)COC[C@H]1O[C@@H](c2csc3c(N4CC5CCCC5C4)nc(Cl)nc23)[C@H](O)[C@@H]1O` (stereo partly drawn) [Compound 295, [(2R,3S,4R,5S)-5-[4-(3,3a,4,5,6,6a-hexa-hydro-1H-cyclopenta-[c]pyrrol-2-yl)-2-chloro-thieno[3,2-d]-pyrimidin-7-yl]-3,4-dihydroxy-tetrahydro-furan-2-yl]methoxy-methylphosphonic acid]: below 10 nM and below 10 nM.
`N#Cc1nc(NC2CCCC2)c2cnn([C@@H]3O[C@H](CS(=O)(=O)CP(=O)(O)O)[C@@H](O)[C@H]3O)c2n1` [Compound 296, (((((2S,3S,4R,5R)-5-(6-cyano-4-(cyclopentylamino)-1H-pyrazolo[3,4-d]pyrimidin-1-yl)-3,4-dihydroxytetrahydrofuran-2-yl)methyl)sulfonyl)methyl)phosphonic acid]: the IC50 (in assay [1]; at Human CD73) was below 10 nM throughout.
As to `O=P(O)(O)COC[C@H]1O[C@@H](c2c(Br)sc3c(N4CC5CCCC5C4)nc(Cl)nc23)[C@H](O)[C@@H]1O` (stereo partly drawn) [Compound 297, [(2R,3S,4R,5S)-5-[4-(3,3a,4,5,6,6a-hexa-hydro-1H-cyclopenta-[c]pyrrol-2-yl)-6-bromo-2-chloro-thieno[3,2-d]-pyrimidin-7-yl]-3,4-dihydroxy-tetrahydro-furan-2-yl]methoxy-methylphosphonic acid], the IC50 (in assay [1]; at Human CD73) was 100 to 1000 nM each time.
As to `O=P(O)(O)COC[C@H]1O[C@@H](c2ccc3c(NC4CCCC4)nc(Cl)nn23)[C@H](O)[C@@H]1O` [Compound 298, [(2R,3S,4R,5S)-5-[2-chloro-4-(cyclopentyl-amino)pyrrolo[2,1-f]-[1,2,4]triazin-7-yl]-3,4-dihydroxy-tetrahydro-furan-2-yl]methoxy-methylphosphonic acid], the IC50 (in assay [1]; at Human CD73) was below 10 nM in each case.
`N#Cc1nc(N2CC3CCCC3C2)c2cnn([C@@H]3O[C@H](CS(=O)(=O)CP(=O)(O)O)[C@@H](O)[C@H]3O)c2n1` (stereo partly drawn) [Compound 299, [(2S,3S,4R,5R)-5-[4-(3,3a,4,5,6,6a-hexa-hydro-1H-cyclopenta-[c]pyrrol-2-yl)-6-cyano-pyrazolo[3,4-d]-pyrimidin-1-yl]-3,4-dihydroxy-tetrahydro-furan-2-yl]methyl-sulfonylmethylphos-phonic acid]: the IC50 (in assay [1]; on Human CD73) was below 10 nM each time.
For the compound `N#Cc1nc(NC2CC3CC3C2)c2cnn([C@@H]3O[C@H](CS(=O)(=O)CP(=O)(O)O)[C@@H](O)[C@H]3O)c2n1` (stereo partly drawn) [Compound 300, [(2S,3S,4R,5R)-5-[4-(3-bicyclo[3.1.0]-hexanylamino)-6-cyano-pyrazolo[3,4-d]-pyrimidin-1-yl]-3,4-dihydroxy-tetrahydro-furan-2-yl]methyl-sulfonylmethylphos-phonic acid], the figures for the IC50 (in assay [1]; on Human CD73) were below 10 nM and 10 to 100 nM, respectively.
In the case of `O=P(O)(O)CS(=O)(=O)C[C@H]1O[C@@H](n2ccc3c(NC4CCCC4)nc(C(F)(F)F)nc32)[C@H](O)[C@@H]1O` [Compound 303, [(2S,3S,4R,5R)-5-[4-(cyclopentylamino)-2-(trifluoromethyl)-pyrrolo[2,3-d]-pyrimidin-7-yl]-3,4-dihydroxy-tetrahydro-furan-2-yl]methyl-sulfonylmethylphos-phonic acid], the IC50 (in assay [1]; at Human CD73) was 10 to 100 nM each time.
As for `O=P(O)(O)COC[C@H]1O[C@H](c2csc3c(N4CC5CCCC5C4)nc(Cl)nc23)[C@H](O)[C@@H]1O` (stereo partly drawn) [Compound 304, [(2R,3S,4R,5R)-5-[4-(3,3a,4,5,6,6a-hexa-hydro-1H-cyclopenta-[c]pyrrol-2-yl)-2-chloro-thieno[3,2-d]-pyrimidin-7-yl]-3,4-dihydroxy-tetrahydro-furan-2-yl]methoxy-methylphosphonic acid], the IC50 (in assay [1]; at Human CD73) was above 1000 nM in each case.
Consider `O=P(O)(O)COC[C@H]1O[C@@H](c2csc3c(NC4CCCC4)nc(Cl)nc23)[C@H](O)[C@@H]1O` [Compound 305, [(2R,3S,4R,5S)-5-[2-chloro-4-(cyclopentyl-amino)thieno[3,2-d]-pyrimidin-7-yl]-3,4-dihydroxy-tetrahydro-furan-2-yl]methoxy-methylphosphonic acid], for which the IC50 (in assay [1]; at Human CD73) was 10 to 100 nM each time.
For the compound `C[C@H](Nc1nc(C#N)nc2c1cnn2[C@@H]1O[C@H](CS(=O)(=O)CP(=O)(O)O)[C@@H](O)[C@H]1O)c1ccc(F)cc1` [Compound 307, [(2S,3S,4R,5R)-5-[6-cyano-4-[[(1S)-1-(4-fluorophenyl)ethyl]-amino]pyrazolo[3,4-d]pyrimidin-1-yl]-3,4-dihydroxy-tetrahydro-furan-2-yl]methyl-sulfonylmethylphos-phonic acid], the values for the IC50 (in assay [1]; on Human CD73) were below 10 nM and 10 to 100 nM, respectively.
The matching figures for `N#Cc1nc(NC2CCC2)c2cnn([C@@H]3O[C@H](CS(=O)(=O)CP(=O)(O)O)[C@@H](O)[C@H]3O)c2n1` [Compound 308, [(2S,3S,4R,5R)-5-[6-cyano-4-(cyclobutyl-amino)pyrazolo[3,4-d]-pyrimidin-1-yl]-3,4-dihydroxy-tetrahydro-furan-2-yl]methyl-sulfonylmethylphos-phonic acid]: below 10 nM and below 10 nM.
